Source: ChEMBL document CHEMBL3774335, “Tactical Approaches to Interconverting GPCR Agonists and Antagonists” (J Med Chem, 2016)

Legend:
[1] = target: T1, Type-2 angiotensin II receptor (Homo sapiens, UniProt P50052); assay: Binding affinity to angiotensin II receptor (unknown origin)
T1 sequence (P50052 whole entry): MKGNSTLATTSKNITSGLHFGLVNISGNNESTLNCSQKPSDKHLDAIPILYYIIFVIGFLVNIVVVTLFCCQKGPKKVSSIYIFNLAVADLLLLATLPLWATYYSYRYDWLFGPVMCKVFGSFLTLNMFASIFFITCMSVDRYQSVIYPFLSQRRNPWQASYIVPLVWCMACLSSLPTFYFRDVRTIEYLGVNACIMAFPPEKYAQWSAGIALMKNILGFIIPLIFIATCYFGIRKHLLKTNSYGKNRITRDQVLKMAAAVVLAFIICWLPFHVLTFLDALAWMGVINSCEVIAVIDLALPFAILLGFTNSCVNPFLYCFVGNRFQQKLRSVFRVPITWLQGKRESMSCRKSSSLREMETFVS

[2] = target: Histamine H3 receptor (Homo sapiens) (UniProt Q9Y5N1); assay: Inverse agonist activity at human histamine H3 receptor expressed in SK-N-MC cells by beta-galactosidase reporter gene assay relative to histamine; type: cell-based
Sequence of Histamine H3 receptor (Homo sapiens) (Q9Y5N1 whole entry): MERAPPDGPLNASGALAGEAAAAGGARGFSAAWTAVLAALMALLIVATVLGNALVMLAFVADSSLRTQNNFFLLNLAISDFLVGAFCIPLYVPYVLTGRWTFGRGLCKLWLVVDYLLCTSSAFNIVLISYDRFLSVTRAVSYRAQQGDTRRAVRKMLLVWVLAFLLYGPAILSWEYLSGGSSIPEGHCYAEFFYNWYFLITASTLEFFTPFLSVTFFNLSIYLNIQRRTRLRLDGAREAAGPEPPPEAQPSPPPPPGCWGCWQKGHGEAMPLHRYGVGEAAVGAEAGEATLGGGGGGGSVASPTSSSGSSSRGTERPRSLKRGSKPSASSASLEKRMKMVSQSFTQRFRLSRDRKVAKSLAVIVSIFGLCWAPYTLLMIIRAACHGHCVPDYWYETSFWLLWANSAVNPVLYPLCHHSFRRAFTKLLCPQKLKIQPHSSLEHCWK

[3] = target: Histamine H3 receptor (Homo sapiens) (UniProt Q9Y5N1); assay: Partial agonist activity at human histamine H3 receptor expressed in SK-N-MC cells by beta-galactosidase reporter gene assay relative to histamine; type: cell-based
Melanocortin receptor 4 = Melanocortin receptor 4 (Homo sapiens, UniProt P32245); assay: Displacement of 125I-NDP-a-MSH from human Melanocortin receptor 4 after 2 hrs by TopCount microplate scintillation and luminescence counter
Sequence of Melanocortin receptor 4 (P32245 whole entry): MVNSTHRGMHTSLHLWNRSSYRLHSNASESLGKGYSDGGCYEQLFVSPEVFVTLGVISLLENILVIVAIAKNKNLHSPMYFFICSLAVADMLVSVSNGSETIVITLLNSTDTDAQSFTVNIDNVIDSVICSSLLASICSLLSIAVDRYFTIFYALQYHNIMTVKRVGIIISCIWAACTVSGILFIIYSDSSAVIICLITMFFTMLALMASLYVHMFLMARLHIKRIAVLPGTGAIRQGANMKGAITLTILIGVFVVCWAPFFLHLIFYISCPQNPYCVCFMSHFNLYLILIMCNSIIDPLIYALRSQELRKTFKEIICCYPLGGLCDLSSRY

Vasopressin V2 receptor = Vasopressin V2 receptor (Homo sapiens, UniProt P30518); assay: Displacement of [3H]AVP from human Vasopressin V2 receptor expressed in HeLa cells after 2 hrs by liquid scintillation counter; type: cell-based
Sequence of Vasopressin V2 receptor (P30518 whole entry): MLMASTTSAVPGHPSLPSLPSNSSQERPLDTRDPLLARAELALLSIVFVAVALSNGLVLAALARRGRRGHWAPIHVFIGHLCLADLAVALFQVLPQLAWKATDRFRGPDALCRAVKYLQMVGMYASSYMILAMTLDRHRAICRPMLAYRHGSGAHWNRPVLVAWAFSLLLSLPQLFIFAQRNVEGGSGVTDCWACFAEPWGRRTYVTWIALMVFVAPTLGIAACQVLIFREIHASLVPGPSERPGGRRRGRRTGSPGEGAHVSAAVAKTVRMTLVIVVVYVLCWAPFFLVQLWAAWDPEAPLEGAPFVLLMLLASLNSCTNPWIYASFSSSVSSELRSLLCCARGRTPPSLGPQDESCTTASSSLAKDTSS

[4] = Displacement of 125I-[Sar1, Ile8] AngII from rat AT1 receptor expressed in COS1 cells; type: cell-based; details: cos-1
B2 bradykinin receptor = target: T2, B2 bradykinin receptor (Homo sapiens, UniProt P30411); assay: Displacement of [3H]BK from cloned human B2 bradykinin receptor expressed in CHO cells after 2 hrs by liquid scintillation counter; type: cell-based
T2 sequence (P30411 whole entry): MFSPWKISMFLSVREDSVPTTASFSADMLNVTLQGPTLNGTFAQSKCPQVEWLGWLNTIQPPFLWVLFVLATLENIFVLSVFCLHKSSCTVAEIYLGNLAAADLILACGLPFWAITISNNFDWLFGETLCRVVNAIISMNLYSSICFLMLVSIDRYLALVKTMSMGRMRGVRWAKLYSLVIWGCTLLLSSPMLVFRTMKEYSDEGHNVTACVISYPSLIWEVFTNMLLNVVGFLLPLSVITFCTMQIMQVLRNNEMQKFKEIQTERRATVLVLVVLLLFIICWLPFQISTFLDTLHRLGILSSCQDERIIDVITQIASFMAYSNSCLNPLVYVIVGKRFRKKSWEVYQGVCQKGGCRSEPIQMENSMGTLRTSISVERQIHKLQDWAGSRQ

For `CCCCOC(=O)NS(=O)(=O)c1ccc(CC(C)C)cc1-c1ccc(Cn2c(CC)nc3c(C)cc(C)nc32)cc1`, the Ki [1] was 2.1 nM.

Compound `c1nc(CCCC2CCCNC2)c[nH]1` (stereo not drawn) has an Intrinsic activity [2] of 29%.

`c1nc(CCC2CCCNC2)c[nH]1` (stereo not drawn) gave an Intrinsic activity [3] of 34%.

Compound `CCN(C(C)=O)C(C)c1ccccc1N1CCN(C(=O)[C@H](CC(=O)NC2CCC2)Cc2ccc(Cl)cc2)CC1` (stereo partly drawn) has a Ki (Melanocortin receptor 4) of 6 nM.

`CCCCOC(=O)NS(=O)(=O)c1ccc(CCC)cc1-c1ccc(Cn2c(CC)nc3c(C)cc(C)nc32)cc1` showed a Ki [1] of 1.5 nM.

`Cc1cc(N)ccc1C(=O)N1CCCCc2cc(Cl)ccc21` showed an IC50 (Vasopressin V2 receptor) of 18 nM.

For `CCCc1nc(C(C)(C)O)c(C(=O)O)n1Cc1ccc(-c2cc(Cc3ccc(O)cc3)ccc2-c2nnn[nH]2)cc1`, the Kd [4] was 21 nM.

Compound `Cc1cc(OCc2ccccn2)c2cccc(OCc3c(Cl)ccc(N(C)C(=O)CNC(=O)/C=C/c4ccc(/C=C/c5ccncc5)nc4)c3Cl)c2n1` has an IC50 (B2 bradykinin receptor) of 0.36 nM.

For `CCCc1nc(C(C)(C)O)c(C(=O)O)n1Cc1ccc(-c2ccccc2-c2nnn[nH]2)cc1` [OLMESARTAN], the Kd [4] was 2.3 nM.

`CCCc1nc(C(C)(C)O)c(C(N)=O)n1Cc1ccc(-c2cc(Cc3ccc(O)cc3)ccc2-c2nnn[nH]2)cc1` showed a Kd [4] of 48 nM.

`c1nc(CCC2CCNCC2)c[nH]1` showed an Intrinsic activity [3] of 60%.

Compound `CCCc1nc(C(C)(C)O)c(C(N)=O)n1Cc1ccc(-c2ccccc2-c2nnn[nH]2)cc1` has a Kd [4] of 0.8 nM.

With `CCN(C(C)=O)C(C)c1ccccc1N1CCN(C(=O)[C@H](CC(=O)N2CCN(C(=O)OC(C)(C)C)CC2)Cc2ccc(Cl)cc2)CC1` (stereo partly drawn) the Ki (Melanocortin receptor 4) was 2 nM.
